# Reference: the supplement of paper PMC4862054
# Assays:
# Details in all cases: incubation time: 72 h
# BT-474 [1] = assay: normalised response (% of control), CellTox Green; higher = less cell death (100 = DMSO, 0 = benzethonium chloride kill control)
# In short: (§1)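 Compound was dispensed into 384-well plates at 5 concentrations in 10-fold steps spanning a 10,000-fold range specific to that compound. Breast cancer cell lines were added as 20 µl suspension and left for 72 h before CellTox Green fluorescence (485/520 nm) and then CellTiter-Glo luminescence, read after 10 min at room temperature. Each reported value is the normalised signal at one concentration, with 0.1 % DMSO set at 100 and a positive kill control at 0 on each plate.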
# BT-549 [2] = assay: as above
# In short: as §1
# CAL-120 [3] = assay: as above
# In short: as §1
# CAL-148 [4] = assay: as above
# In short: as §1
# CAL-51 [5] = assay: as above
# In short: as §1
# CAL-85-1 [6] = assay: as above
# In short: as §1
# DU-4475 [7] = assay: as above
# In short: as §1
# HCC1599 [8] = assay: as above
# In short: as §1
# HCC1937 [9] = assay: as above
# In short: as §1
# HDQ-P1 [10] = assay: as above
# In short: as §1
# Hs578T [11] = assay: as above
# In short: as §1
# MCF-10A [12] = assay: as above
# In short: as §1
# MDA-MB-436 [13] = assay: as above
# In short: as §1
# MDA-MB-453 [14] = assay: as above
# In short: as §1
# MDA-MB-468 [15] = assay: as above
# In short: as §1
# MFM-223 [16] = assay: as above
# In short: as §1
# BT-474 [17] = assay: normalised response (% of control), CellTiter-Glo; higher = more viable cells (100 = DMSO, 0 = benzethonium chloride kill control)
# Procedure: (§2)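 DSRT, 72 h incubation, CellTox Green / CellTiter-Glo readout. Signal is normalised to DMSO and benzethonium chloride controls. Value is the normalised response at the highest dose.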
# BT-549 [18] = assay: as above
# Procedure: as §2
# CAL-120 [19] = assay: as above
# Procedure: as §2
# CAL-148 [20] = assay: as above
# Procedure: as §2
# CAL-51 [21] = assay: as above
# Procedure: as §2
# CAL-85-1 [22] = assay: as above
# Procedure: as §2
# DU-4475 [23] = assay: as above
# Procedure: as §2
# HCC1143 [24] = assay: as above
# Procedure: as §2
# HCC1599 [25] = assay: as above
# Procedure: as §2
# HCC1937 [26] = assay: as above
# Procedure: as §2
# HDQ-P1 [27] = assay: as above
# Procedure: as §2
# Hs578T [28] = assay: as above
# Procedure: as §2
# MCF-10A [29] = assay: as above
# Procedure: as §2
# MDA-MB-231 [30] = assay: as above
# Procedure: as §2
# MDA-MB-436 [31] = assay: as above
# Procedure: as §2
# MDA-MB-453 [32] = assay: as above
# Procedure: as §2
# MDA-MB-468 [33] = assay: as above
# Procedure: as §2
# MFM-223 [34] = assay: as above
# Procedure: as §2
# SK-BR-3 = assay: as above
# Procedure: as §2
# HCC1143 [35] = assay: normalised response (% of control), CellTox Green; higher = less cell death (100 = DMSO, 0 = benzethonium chloride kill control)
# In short: as §1
# MDA-MB-231 [36] = assay: as above
# In short: as §1
Structure (SMILES),normalised response (BT-474 [1]),normalised response (BT-549 [2]),normalised response (CAL-120 [3]),normalised response (CAL-148 [4]),normalised response (CAL-51 [5]),normalised response (CAL-85-1 [6]),normalised response (DU-4475 [7]),normalised response (HCC1599 [8]),normalised response (HCC1937 [9]),normalised response (HDQ-P1 [10]),normalised response (Hs578T [11]),normalised response (MCF-10A [12]),normalised response (MDA-MB-436 [13]),normalised response (MDA-MB-453 [14]),normalised response (MDA-MB-468 [15]),normalised response (MFM-223 [16]),normalised response (BT-474 [17]),normalised response (BT-549 [18]),normalised response (CAL-120 [19]),normalised response (CAL-148 [20]),normalised response (CAL-51 [21]),normalised response (CAL-85-1 [22]),normalised response (DU-4475 [23]),normalised response (HCC1143 [24]),normalised response (HCC1599 [25]),normalised response (HCC1937 [26]),normalised response (HDQ-P1 [27]),normalised response (Hs578T [28]),normalised response (MCF-10A [29]),normalised response (MDA-MB-231 [30]),normalised response (MDA-MB-436 [31]),normalised response (MDA-MB-453 [32]),normalised response (MDA-MB-468 [33]),normalised response (MFM-223 [34]),normalised response (SK-BR-3),normalised response (HCC1143 [35]),normalised response (MDA-MB-231 [36])
CC(C)(C#N)c1cc(Cn2cncn2)cc(C(C)(C)C#N)c1 [Anastrozole] (10000 nM),93%,98.8%,99.1%,105%,100%,92.9%,95.3%,106%,69.8%,105%,77.6%,105%,107%,88%,116%,89.5%,97.5%,102%,98.3%,104%,98.6%,104%,103%,102%,99.8%,101%,100%,100%,101%,99.9%,96%,108%,105%,103%,108%,,
CC(C)c1c(C(=O)Nc2ccccc2)c(-c2ccccc2)c(-c2ccc(F)cc2)n1CC[C@@H](O)C[C@@H](O)CC(=O)O [Atorvastatin] (10000 nM),104%,102%,45.3%,99.2%,-23.5%,86.1%,98%,103%,92.4%,85.6%,7.6%,1.75%,83%,88%,121%,101%,11.1%,70%,47.4%,94.8%,21.2%,52.7%,87.4%,55.3%,83.4%,68.3%,44%,37.8%,4.77%,3.78%,71.4%,89.7%,19.1%,76.1%,79.8%,101%,-37.9%
O=C(O)CCCc1ccc(N(CCCl)CCCl)cc1 [Chlorambucil] (10000 nM),99.8%,78.8%,102%,95.3%,81.7%,82.5%,98.1%,105%,105%,104%,124%,83%,66.2%,102%,141%,99.2%,96%,91.9%,100%,103%,117%,96.2%,96.9%,96.9%,89.3%,94.9%,101%,103%,97.3%,97.6%,81.3%,123%,94.1%,108%,101%,102%,104%
Cn1c(=O)n(-c2ccc(C(C)(C)C#N)cc2)c2c3cc(-c4cnc5ccccc5c4)ccc3ncc21 [Dactolisib] (1000 nM),101%,112%,104%,-65%,81.3%,64.6%,102%,107%,45.6%,115%,101%,87.3%,112%,104%,170%,28.8%,61.8%,25.9%,26.2%,33.1%,23.5%,43%,30.4%,37.5%,82%,58%,52.4%,33.9%,52.3%,51.3%,57%,37.9%,31.5%,42.3%,27.2%,130%,126%
Nc1nc(OCc2cc(Br)cs2)c2[nH]cnc2n1 [Lomeguatrib] (10000 nM),95.9%,96.6%,104%,69.2%,89.2%,114%,97.9%,99.2%,,104%,108%,75.2%,94.1%,92.8%,161%,98.5%,98.9%,93.5%,101%,101%,67.2%,97%,102%,94.5%,106%,103%,96.5%,98.7%,97.4%,98.5%,90.6%,91.3%,87.1%,91.8%,93.9%,98%,112%
